Measurements from the supplement of paper PMC10307832.

How the values were obtained:
Test in all cases: relative viability (nuclei count vs DMSO), 5 days (fraction); higher = more cells survive
[1] = compound: CN[C@@H]1C[C@H]2O[C@@](C)([C@@H]1OC)n1c3ccccc3c3c4c(c5c6ccccc6n2c5c31)C(=O)NC4 [Staurosporine] + CCNC(=O)c1noc(-c2cc(C(C)C)c(O)cc2O)c1-c1ccc(CN2CCOCC2)cc1 [Luminespib] (partner 0.01 µM)
In short: (§1)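 Five library-drug doses in √10 steps were combined with a fixed anchor-drug dose, or a single drug was given alone, by pin tool to lung cancer cell lines in 1536-well plates the day after seeding. Nuclei were stained and counted after 5 days. Relative viability is the nuclei count in treated wells over that in vehicle wells, taken as the median of duplicate plates.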

[2] = compound: O=c1[nH]cc(F)c(=O)[nH]1 [5-Fluorouracil] + O=C(CCCCCCC(=O)Nc1ccccc1)NO [Vorinostat] (partner 1 µM)
In short: as §1

Sulindac + Crizotinib = compound: CC1=C(CC(=O)O)c2cc(F)ccc2/C1=C\c1ccc([S+](C)[O-])cc1 [Sulindac] + C[C@@H](Oc1cc(-c2cnn(C3CCNCC3)c2)cnc1N)c1c(Cl)ccc(F)c1Cl [Crizotinib] (partner 1 µM)
In short: as §1

[3] = compound: CN[C@@H]1C[C@H]2O[C@@](C)([C@@H]1OC)n1c3ccccc3c3c4c(c5c6ccccc6n2c5c31)C(=O)NC4 [Staurosporine] + Cc1nc(Nc2ncc(C(=O)Nc3c(C)cccc3Cl)s2)cc(N2CCN(CCO)CC2)n1 [Dasatinib] (partner 0.075 µM)
In short: as §1

UMC-11
relative viability ([1]; first compound 0.005 µM): 0.894 | relative viability ([1]; first compound 0.01581 µM): 0.487 | relative viability ([1]; first compound 0.05 µM): 0.223 | relative viability ([1]; first compound 0.1581 µM): 0.135 | relative viability ([1]; first compound 0.5 µM): 0.0992 | relative viability ([2]; first compound 0.02 µM): 0.374 | relative viability ([2]; first compound 0.2 µM): 0.325 | relative viability ([2]; first compound 0.6325 µM): 0.244 | relative viability (Sulindac + Crizotinib; first compound 0.08 µM): 0.862 | relative viability (Sulindac + Crizotinib; first compound 0.253 µM): 0.525 | relative viability (Sulindac + Crizotinib; first compound 0.8 µM): 0.66 | relative viability (Sulindac + Crizotinib; first compound 2.53 µM): 0.578 | relative viability (Sulindac + Crizotinib; first compound 8 µM): 0.901 | relative viability ([3]; first compound 0.005 µM): 0.508 | relative viability ([3]; first compound 0.05 µM): 0.149 | relative viability ([3]; first compound 0.1581 µM): 0.114 | relative viability ([3]; first compound 0.5 µM): 0.0934
